{
  "source": "paper PMC6081452",
  "about": "“Downstream Products are Potent Inhibitors of the Heparan Sulfate 2-O-Sulfotransferase” (Scientific Reports, 2018)",
  "key": {"non-glyc-HS2ST R189A": {"biological_target": "T1, non-glyc-HS2ST R189A (Gallus gallus, UniProt Q76KB1, R189A)", "T1 construct": "made in house; host or cells: E. coli Origami B (DE3)", "T1 sequence (Q76KB1 69-356 R189A limits assumed)": "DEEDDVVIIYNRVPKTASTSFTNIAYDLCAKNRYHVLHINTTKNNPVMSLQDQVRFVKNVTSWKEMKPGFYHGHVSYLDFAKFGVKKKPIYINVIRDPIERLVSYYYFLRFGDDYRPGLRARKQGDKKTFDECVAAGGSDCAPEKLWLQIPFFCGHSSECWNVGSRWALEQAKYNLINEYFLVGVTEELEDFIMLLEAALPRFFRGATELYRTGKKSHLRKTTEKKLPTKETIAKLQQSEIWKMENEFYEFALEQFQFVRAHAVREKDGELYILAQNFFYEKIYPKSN", "experiment": "BLI equilibrium binding, non-glyc-HS2ST R189A", "parameters": "species or system chicken", "conditions": "BLI saturation binding curves, n = 3, ± standard error of fit; — = response too weak to fit", "from_the_text": "(§1) To assess whether the inhibitory compounds interact with the active site, point mutations were introduced in non-glyc-HS2ST (Fig. 4a). Four mutants of the catalytic residue (H142A/E/R/K) were created, along with a mutation of the residue that facilitates 2-O-sulfation of IdoA residues (R189A)[27]. Additionally, a negative control (NC) was generated containing multiple mutations of positively charged residues (R189A, R80E, and R184E) that reduced the net charge of each protein monomer by 5. The extent that the mutations affected affinity provided an indication that the ligand had been bound in the active site (Table 1 and Supplementary Fig. 1). While R189A markedly diminished the affinity for all compounds, the NC mutations reduced affinity to immeasurable levels. Removal of the catalytic side chain (H142A) enhanced the affinity of each compound, compared to the WT, by approximately 2–3-fold. Addition of a positive charge at this location (H142K/R) further enhanced the affinity for each compound, so much so that a KD value could be measured even for 2. The H142E mutation diminished the affinity of 5 by half compared to WT, but its effects were less significant for binding to 3 or 4.\n(§2) The chicken HS2ST-Maltose Binding Protein (MBP) fusion protein was expressed and purified according to previous studies. The fusion protein was transformed into E. coli Origami B (DE3) cells, cultured at 37 °C until OD600 reached 0.5, then induced with isopropyl-β-D-thiogalactopyranoside and allowed to grow overnight at 20 °C. Cells were sonicated, followed by a two-step purification procedure. Whole-cell supernatant was passed through an amylose column with Tris buffer (25 mM Tris, 500 mM NaCl, pH 7.5). An elution buffer consisted of Tris Buffer with 40 mM Maltose. The amylose column eluent was concentrated and loaded on a Superdex 200 Increase 10/300 GL with PBS buffer (10 mM sodium phosphate, 150 mM NaCl, pH 7.8) to separate trimeric protein from aggregate and independent MBP (Supplementary Fig. 4). All reported mutations formed homotrimeric complexes according to the SEC profiles, including the negative control (NC = R189A/R80E/R184E). Protein concentration was assessed via UV at 280 nm (MW of trimer ~210 KDa, extinction coefficient ~119,000 M^−1 cm^−1 according to ExPASy ProtParam webtool[56]). The trimeric protein preparation was adjusted to 5% glycerol and stored at −20 °C until use. Additional non-glyc-HS2ST constructs were created with the Q5® Mutagenesis kit (New England Biolabs Inc.; cat. # E0554S) and sequenced at the Georgia Genomics Facility at the University of Georgia.\n(§3) The Octet® RED96 system (FortéBio Inc.) was employed to detect the affinity of the enzymes for specific HS targets. […]"}, "non-glyc-HS2ST H142A": {"biological_target": "T2, non-glyc-HS2ST H142A (Gallus gallus, UniProt Q76KB1, H142A)", "T2 construct": "made in house; host or cells: E. coli Origami B (DE3)", "T2 sequence (Q76KB1 69-356 H142A limits assumed)": "T1 sequence (Q76KB1 69-356 R189A limits assumed) with H74A, A121R", "experiment": "BLI equilibrium binding, non-glyc-HS2ST H142A", "parameters": "species or system chicken", "conditions": "BLI saturation binding curves, n = 3, ± standard error of fit", "from_the_text": "as §1, §2, §3"}},
  "note": "Substitutions are numbered along the chain they refer to.",
  "data": [
    {"substance": "GlcNS-GlcA-GlcNS-IdoA2S-GlcNS-GlcA~ [Compound 2]", "values": [
      {"measurement": "Kd", "setting": "non-glyc-HS2ST R189A", "value": "> 500", "unit": "nM"},
      {"measurement": "Kd", "setting": "non-glyc-HS2ST H142A", "value": "460 ± 91", "unit": "nM"}
    ]},
    {"substance": "GlcNS6S-GlcA-GlcNS6S-IdoA2S-GlcNS6S-GlcA~ [Compound 3]", "values": [
      {"measurement": "Kd", "setting": "non-glyc-HS2ST R189A", "value": "448 ± 124", "unit": "nM"},
      {"measurement": "Kd", "setting": "non-glyc-HS2ST H142A", "value": "20 ± 3", "unit": "nM"}
    ]},
    {"substance": "GlcNS6S-GlcA-GlcNS6S-GlcA-GlcNS6S-GlcA~ [Compound 5]", "values": [
      {"measurement": "Kd", "setting": "non-glyc-HS2ST R189A", "value": "> 500", "unit": "nM"},
      {"measurement": "Kd", "setting": "non-glyc-HS2ST H142A", "value": "25 ± 2", "unit": "nM"}
    ]},
    {"substance": "GlcNS6S-GlcA-GlcNS3S6S-IdoA2S-GlcNS6S-GlcA~ [Compound 4]", "values": [
      {"measurement": "Kd", "setting": "non-glyc-HS2ST R189A", "value": "63 ± 5", "unit": "nM"},
      {"measurement": "Kd", "setting": "non-glyc-HS2ST H142A", "value": "10 ± 2", "unit": "nM"}
    ]}
  ]
}
